Patent US20060210479A1 (Dow Global Technologies Inc., priority 2004, published 2006)
Like-named read-outs stand apart in the source and are kept apart here.

Legend:
LNCaP cell line = assay: Chelate permeability: fluorescence of cytoplasm and membrane fractions; assay type: cell-based, human
T84 cell line = assay: as above; assay type: cell-based, human; settings: 1 mM chelate, 2 h, Table 1
Caco-2 cell line = assay: as above; assay type: cell-based, human
RBL-2H3 cell line = assay: as above; assay type: cell-based, rat; settings: 0-2000 μM, 2 hours
Experimental: Tb-PCTMB (Tb(III) 3,6,9-tris(methylene phosphonic acid n-butyl ester)-3,6,9,15-tetraazabicyclo[9.3.1]pentadeca-1(15),11,13-triene) was tested for permeability to abnormal and disease-state cells.
RBL-2H3 is a rat basophilic leukemia cell line. These cells were grown in Iscove's Medium supplemented with 2 mM L-glutamnine, penicillin/streptomycin (100 IU/mL, 100 μg/mL) and 10% FBS. Cells were maintained at 5% CO2 and 95% humidity. PZ-HPV-7 cell line was derived from epithelial cells cultured from normal prostate tissue. They were grown in Keratinocyte-Serum Free Medium with human recombinant EGF and bovine pituitary extract supplemented with 50 μg/mL gentamicin and penicillin/streptomycin (100 IU/mL, 100 μg/mL). All media and supplements were purchased from Gibco BRL (Grand Island, N.Y., USA). All cell lines were obtained from ATCC and were maintained at 37° C., 5% CO2 and 95% humidity.
Cells were grown to confluence in T-150 flasks (about 2×10^6 cells). […] Cells were then removed from the flask by manual scraping. Cells were transferred to a 50-mL conical tube and centrifuged (400×g) for 5 minutes and the test material removed.
Cells were grown as described herein (Example 1). Cells were grown to confluence in T-150 flask (about 2×10^6 cells). […] Cells were then removed from the flask by manual scraping. Cells were transferred to a 50-mL conical tube and centrifuged (400×g) for 5 minutes and the test material removed.
Furthermore, one analogue, QCTMP (FIG. 26), having lesser lipophilic character (a free phosphonic acid moiety) was evaluated. […] In this study, the cytoplasm and membrane fractions were extracted by Mem-PER Eukaryotic Membrane Protein Extraction Reagent Kit as described by the manufacturers (Pierce Biotechnology, Rockford, Ill.) and analyzed by a Fluor-S Multilmager.

[1] = tested on: PZ-HPV-7 normal cell line; assay: as above; assay type: cell-based; settings: PZ-HPV-7
[2] = tested on: HEK293 cells, normal (non-induced); assay: Permeability of chelates to HEK293 cells, fluorescence of fractions; assay type: cell-based, human; settings: HEK293 Normal; 1 mM chelate, 2 hours
Experimental: (§1) The human kidney transformed HEK293 cells (obtained from the ATCC) were grown in Eagle's Minimum Essential Medium (EMEM) supplemented with 10% (v/v) heat-inactivated fetal bovine serum, sodium pyruvate, nonessential amino acids and antibiotics in a humidified 5% CO2 atmosphere at 37° C. Medium and supplements were purchased from Gibco bRL (Grand Island, N.Y.). Etoposide was obtained from Sigma (St. Louis, Mo.) and prepared as 20 mM solution in dimethyl sulfoxide (DMSO). For treatments, etoposide was applied to the HEK293 cultures at 1:1000 dilution (final concentration of 20 μM) after cell became 75% confluent. As a control, cells were fed with medium containing 0.1% DMSO in the absence of etoposide. After treatment with etoposide, cells were incubated in a humidified 5% CO2 at 37° C. for 24 hours. HEK293 cells were collected by removing treatment medium and washed 2 times with 10 mM HEPES buffer. Final cell pellets were resuspended in a small amount of HEPES and stored at 4° C. for further study.
(§2) Cells were grown to confluence in T-150 flasks (about 2×10^6 cells). […] After treatment, the chelate or analogue supernatant was discarded and the cells were rinsed three times at room temperature with 10 mM HEPES. Cells were then removed from the flask by manual scraping. Cells were transferred to a 50-mL conical tube and centrifuged (400×g) for 5 minutes and the test material removed. Remaining cells were rinsed twice with cold 10 mM HEPES. Cells were used in cell binding assays.

[3] = tested on: etoposide-induced (apoptotic) HEK293 cells; assay: Permeability of chelates to apoptotic cells, fluorescence of fractions; assay type: cell-based, human
Experimental: as §1, §2

[4] = tested on: cancer cells (LNCaP, Caco-2, T84); assay: Chelate permeability and specificity, cancer cells versus normal cells (summary); assay type: cell-based, human; settings: cancer cells
[5] = tested on: DMBA-induced tumor tissue of buccal cheek pouch; settings: 2 mM solution topical, 10 minutes; for Fluorescence/mg Cytoplasm / Fluorescence/mg Membrane: readings Adjusted Volume CNT*mm2
[6] = tested on: normal cheek pouch tissue; settings: 2 mM solution topical, 10 minutes, readings Adjusted Volume CNT*mm2
HSPC194 = HSPC194 (Homo sapiens, UniProt Q9P0S9); settings: LNCaP, T84, Caco-2, RBL-2H3; 2 hours
Experimental: Cell samples were lysed in parallel by sonication or by lysis in hypotonic buffer. Cell fractions were collected from discontinuous sucrose gradients and from separate Percoll gradients, after ultracentrifugation.
Following fractionation, each sample was lyophilized to enrich the sample.
The resulting tryptic peptides were analyzed directly by mass spectrometry. Peptide mass fingerprints were generated for the identification of the protein, and MALDI-PSD was used to sequence Fragments T3, T4, T5, and T6. The resulting data were used to search GenBank for a human protein having or a nucleic acid encoding, an amino acid sequence matching this set of peptides.

[7] = tested on: cancer cell lines (LNCaP, T84, Caco-2, RBL-2H3) and healthy control cells
[8] = 0-2000 μM, 2 hours, compared to PZ-HPV-7

Sequence of HSPC194 (Q9P0S9 whole entry): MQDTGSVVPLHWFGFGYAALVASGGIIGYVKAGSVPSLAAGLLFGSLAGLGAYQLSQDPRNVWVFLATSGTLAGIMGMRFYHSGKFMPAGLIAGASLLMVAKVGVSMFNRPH

## CCCCOP(=O)([O-])CN1CCN(CP(=O)([O-])OCCCC)Cc2cccc(n2)CN(CP(=O)([O-])OCCCC)CC1.[Tb+3] [Tb-PCTMB, Tb(III) 3,6,9-tris(methylenephosphonic acid n-butyl ester)-3,6,9,15-tetraazabicyclo[9.3.1]pentadeca-1(15),11,13-triene]
LNCaP cell line; [8]
  fluorescence in the cytoplasm, dose response: significant increases in fluorescence
LNCaP cell line; 1 mM chelate, 2 h, Table 1
  Fluorescence/mg Cytoplasm: 616.8
  Fluorescence/mg Membrane: 448.9
T84 cell line
  Fluorescence/mg Cytoplasm: 476.4
  Fluorescence/mg Membrane: 355.5
Caco-2 cell line; 0-2000 μM, 2 hours
  fluorescence in the membrane fractions, dose response: detectable quantity of fluorescence
Caco-2 cell line; [8]
  fluorescence in the cytoplasm, dose response: significant increases in fluorescence
Caco-2 cell line; 1 mM chelate, 2 h, Table 1
  Fluorescence/mg Cytoplasm: 481.6
  Fluorescence/mg Membrane: 398.6
RBL-2H3 cell line
  fluorescence in the membrane fractions, dose response: detectable quantity of fluorescence
RBL-2H3 cell line; compared to PZ-HPV-7
  fluorescence in the cytoplasm, dose response: significant increases in fluorescence
[1]
  detectability in normal cells: significantly less detectable
[2]
  Fluorescence/mg Membrane: 925
[3]
  permeability to apoptotic induced HEK293 cells: permeable
[3]; HEK293 Apoptotic (etoposide 20 μM, 24 hours), 1 mM chelate, 2 hours
  Fluorescence/mg Membrane: 949
[4]
  permeability to cell membranes: permeable to cancer cell membranes
[5]
  fluorescence in the cytoplasm of tumor tissue compared to normal tissue: significantly greater fluorescence
[5]; Tumor 1
  Fluorescence/mg Cytoplasm: 3014
  Fluorescence/mg Membrane: 1331
[5]; Tumor 2
  Fluorescence/mg Cytoplasm: 3064
  Fluorescence/mg Membrane: 1484
[6]; Normal 1
  Fluorescence/mg Cytoplasm: 1138
  Fluorescence/mg Membrane: 1126
[6]; Normal 2
  Fluorescence/mg Cytoplasm: 1117
  Fluorescence/mg Membrane: 1125
HSPC194
  binding to protein expressed in cancer cell lines (HSPC194, about 15 kDa): binds specifically to a single protein
[7]
  localization in cancer cell lines, confocal fluorescence microscopy: localized throughout the cytoplasm
  presence in healthy (control) cells, confocal fluorescence microscopy: not present
